Measurements from the NIST ThermoML archive (doi:10.1016/j.fluid.2013.12.022).

Assay: refractive index (other wavelength) (dimensionless); xn = mol fraction of the nth substance listed
Conditions: 85 kPa, Liquid, Wavelength=632.8 nm, minimum deviation angle technique

CC(C)(C)O [2-methylpropan-2-ol] + CCCCCCCC[n+]1ccn(C)c1.F[P-](F)(F)(F)(F)F
x2 = 0
Conditions | refractive index
309.16 K | 1.3775
312.05 K | 1.3759
315.18 K | 1.3742
318.15 K | 1.3725
321.11 K | 1.3708
324.42 K | 1.3689

CCCCCCCC[n+]1ccn(C)c1.F[P-](F)(F)(F)(F)F [1-octyl-3-methylimidazolium hexafluorophosphate] + CCCO
Conditions | refractive index
298.19 K, x1 = 1 | 1.4215
300.2 K, x1 = 1 | 1.421
302.19 K, x1 = 1 | 1.4204
304.2 K, x1 = 1 | 1.4199
305.17 K, x1 = 0.3 | 1.4047
305.17 K, x1 = 0.5 | 1.4114
305.21 K, x1 = 0.6 | 1.4137
305.22 K, x1 = 0.801 | 1.4171
305.23 K, x1 = 0.698 | 1.4154
305.26 K, x1 = 0.899 | 1.4184
305.27 K, x1 = 0.399 | 1.4084
306.18 K, x1 = 0.6 | 1.4134
306.19 K, x1 = 0.5 | 1.4111
306.2 K, x1 = 0.3 | 1.4044
306.2 K, x1 = 0.399 | 1.4081
306.2 K, x1 = 0.801 | 1.4168
306.22 K, x1 = 1 | 1.4193
306.23 K, x1 = 0.698 | 1.4151
306.25 K, x1 = 0.899 | 1.4181
307.19 K, x1 = 0.3 | 1.404
307.19 K, x1 = 0.801 | 1.4165
307.21 K, x1 = 0.399 | 1.4078
307.21 K, x1 = 0.6 | 1.4131
307.24 K, x1 = 0.698 | 1.4148
307.24 K, x1 = 0.899 | 1.4178
307.29 K, x1 = 0.2 | 1.3986
307.35 K, x1 = 0.5 | 1.4108
308.19 K, x1 = 0.5 | 1.4105
308.2 K, x1 = 0.3 | 1.4037
308.21 K, x1 = 0.801 | 1.4162
308.23 K, x1 = 0.899 | 1.4175
308.24 K, x1 = 0.698 | 1.4146
308.24 K, x1 = 1 | 1.4188
308.25 K, x1 = 0.399 | 1.4075
308.26 K, x1 = 0.2 | 1.3983
308.27 K, x1 = 0.6 | 1.4128
308.32 K, x1 = 0.1 | 1.3904
309.18 K, x1 = 0.399 | 1.4072
309.19 K, x1 = 0.3 | 1.4034
309.19 K, x1 = 0.5 | 1.4102
309.21 K, x1 = 0.6 | 1.4125
309.21 K, x1 = 0.899 | 1.4173
309.22 K, x1 = 0.698 | 1.4143
309.23 K, x1 = 0.1 | 1.3901
309.23 K, x1 = 0.801 | 1.416
309.28 K, x1 = 0.2 | 1.3979
310.11 K, x1 = 0.3 | 1.4031
310.19 K, x1 = 0.6 | 1.4122
310.2 K, x1 = 0.5 | 1.4099
310.21 K, x1 = 0.899 | 1.417
310.23 K, x1 = 0.1 | 1.3897
310.23 K, x1 = 0.698 | 1.414
310.25 K, x1 = 0.801 | 1.4157
310.25 K, x1 = 1 | 1.4183
310.26 K, x1 = 0.2 | 1.3976
310.29 K, x1 = 0.399 | 1.4069
311.2 K, x1 = 0.6 | 1.4119
311.2 K, x1 = 0.801 | 1.4154
311.2 K, x1 = 0.899 | 1.4167
311.21 K, x1 = 0.3 | 1.4027
311.21 K, x1 = 0.399 | 1.4066
311.22 K, x1 = 0.5 | 1.4096
311.24 K, x1 = 0.1 | 1.3893
311.25 K, x1 = 0.2 | 1.3973
311.25 K, x1 = 0.698 | 1.4138
312.17 K, x1 = 0.3 | 1.4024
312.17 K, x1 = 0.399 | 1.4063
312.19 K, x1 = 0.6 | 1.4116
312.19 K, x1 = 0.698 | 1.4135
312.2 K, x1 = 0.2 | 1.397
312.2 K, x1 = 0.5 | 1.4093
312.2 K, x1 = 0.801 | 1.4151
312.2 K, x1 = 0.899 | 1.4164
312.24 K, x1 = 1 | 1.4178
312.26 K, x1 = 0.1 | 1.3889
313.24 K, x1 = 0.1 | 1.3886
313.24 K, x1 = 0.2 | 1.3966

CCCO [propan-1-ol] + CCCCCCCC[n+]1ccn(C)c1.F[P-](F)(F)(F)(F)F
x2 = 0
Conditions | refractive index
298.19 K | 1.3818
300.2 K | 1.381
302.19 K | 1.3802
304.2 K | 1.3793
306.22 K | 1.3785
308.24 K | 1.3777
310.25 K | 1.3769
312.24 K | 1.376

CCCCCCCC[n+]1ccn(C)c1.F[P-](F)(F)(F)(F)F [1-octyl-3-methylimidazolium hexafluorophosphate] + CC(C)(C)O
Conditions | refractive index
312.06 K, x1 = 1 | 1.4179
314.47 K, x1 = 1 | 1.4173
316.92 K, x1 = 1 | 1.4166
317.23 K, x1 = 0.699 | 1.4113
317.35 K, x1 = 0.803 | 1.4134
317.36 K, x1 = 0.991 | 1.4149
317.38 K, x1 = 0.398 | 1.4034
319.13 K, x1 = 0.5 | 1.4064
319.2 K, x1 = 1 | 1.416
319.25 K, x1 = 0.699 | 1.4107
319.26 K, x1 = 0.803 | 1.4129
319.3 K, x1 = 0.991 | 1.4144
319.31 K, x1 = 0.398 | 1.4028
319.63 K, x1 = 0.601 | 1.4088
320.77 K, x1 = 0.5 | 1.4059
321.17 K, x1 = 0.1 | 1.3834
321.28 K, x1 = 0.991 | 1.4139
321.32 K, x1 = 1 | 1.4155
321.34 K, x1 = 0.803 | 1.4124
321.37 K, x1 = 0.2 | 1.3919
321.38 K, x1 = 0.299 | 1.3978
321.4 K, x1 = 0.699 | 1.4102
321.46 K, x1 = 0.398 | 1.4021
321.58 K, x1 = 0.601 | 1.4083
322.42 K, x1 = 0.5 | 1.4054
322.78 K, x1 = 0.299 | 1.3972
322.79 K, x1 = 0.2 | 1.3912
322.97 K, x1 = 0.1 | 1.3826
323.23 K, x1 = 0.991 | 1.4134
323.3 K, x1 = 1 | 1.4149
323.32 K, x1 = 0.699 | 1.4097
323.32 K, x1 = 0.803 | 1.4118
323.79 K, x1 = 0.601 | 1.4077
323.84 K, x1 = 0.398 | 1.4013
324.07 K, x1 = 0.5 | 1.4049
324.29 K, x1 = 0.2 | 1.3906
324.29 K, x1 = 0.299 | 1.3967
324.43 K, x1 = 0.1 | 1.3819
325 K, x1 = 0.601 | 1.4073
325.29 K, x1 = 0.991 | 1.4128
325.3 K, x1 = 0.699 | 1.4093
325.35 K, x1 = 0.803 | 1.4113
325.38 K, x1 = 1 | 1.4143
325.78 K, x1 = 0.398 | 1.4007
325.81 K, x1 = 0.299 | 1.3963
325.82 K, x1 = 0.1 | 1.3814
325.92 K, x1 = 0.5 | 1.4043
325.95 K, x1 = 0.2 | 1.39
327.11 K, x1 = 0.699 | 1.4088
327.12 K, x1 = 0.803 | 1.4108
327.13 K, x1 = 0.601 | 1.4066
327.36 K, x1 = 0.2 | 1.3894
327.4 K, x1 = 0.991 | 1.4123
327.41 K, x1 = 1 | 1.4138
327.47 K, x1 = 0.299 | 1.3957
327.72 K, x1 = 0.398 | 1.4
327.74 K, x1 = 0.5 | 1.4037
327.97 K, x1 = 0.1 | 1.3804
328.85 K, x1 = 0.601 | 1.4061
329.18 K, x1 = 0.1 | 1.3797
329.18 K, x1 = 0.2 | 1.3887
329.26 K, x1 = 0.299 | 1.3951
